Patent EP0705258B1, “AZOLYL-CYCLIC AMINE DERIVATIVES WITH IMMUNOMODULATORY ACTIVITY” (Knoll AG, priority 1993, dated 1995)
Counter-ions that a name gives are not always drawn.

What was measured:
[1] = tested on: tumour necrosis factor-α (TNF-α); assay: Mouse Tumour Necrosis Factor Test (Test B), mouse endotoxin shock model, serum TNF-α by ELISA; type: in vivo, BALB/c mice; settings: minimum effective oral dose giving significant reduction in serum TNF-α of ≥35%, dosed 2 h before LPS i.p., ≤ = active at dose given but not tested at lower doses; for minimal effective dose: Mus musculus, read-out: MTNF:MED
Excerpt: Preferred compounds of the present invention are active in an in-vivo test which determines the ability of the compounds to inhibit the release of tumour necrosis factor-α (TNF-α) in a mouse endotoxin shock model (Test B). This model is similar to that described by Zuckerman and Bendele (1989), Infection and Immunity 57 (10): p3009-3013.
Each compound of formula I was combined with a carrier of a solution of 1.5% v/v sorbitan esters under the trade name Tween 80 and 0.25% v/v cellosize in sterile water (100 µl) and was administered orally to a group of four BALB/c mice. The concentration of compound was such as to provide dosages selected from 100, 30, 10, 3, 1, 0.1 and 0.03 mg/kg. Two hours after such oral administration, lipopolysaccharide (LPS) (E. coli 0127:B8) (100 µg) in sterile water (0.2 ml) was administered intraperitoneally to the test mice.
A control group of eight BALB/c mice was treated in a similar manner as the test group except that no test compound was included with the carrier.
One hour after LPS administration the mice were killed and blood was collected by cardiac puncture. The blood was incubated at 20°C for 2 hours and the serum was separated from the clotted blood following centrifugation. Serum tumour necrosis factor-α (TNF-α) levels were assayed by an enzyme-linked immunosorbent assay (ELISA) and the concentration of TNF-α in each of the drug-treated groups was compared with the control group by one-way analysis of variance followed by a multiple t-test.
The ELISA was carried out by coating a 96-well vinyl assay plate (Costar) overnight at 4°C with 50 µl per well of 2 µg/ml hamster anti-mouse TNF monoclonal antibody in 0.1M sodium hydrogen carbonate buffer at pH 8.2. After washing the plate with phosphate buffered saline (PBS) containing 0.05% v/v sorbitan esters under the trade name Tween 20 (wash buffer), a blocking/dilution buffer (10% sheep serum in PBS containing 0.1% v/v sorbitan esters under the trade name Tween 20 (200 µl)) was aliquoted to each well and incubated at 37°C for 0.5 hours. After aspirating the blocking buffer, the serum samples and pure TNF (as a standard) diluted in blocking/dilution buffer, were added to the wells and incubated at 37°C for 2 hours. After washing with the wash buffer, a polyclonal rabbit anti-mouse TNF-α antibody in blocking/dilution buffer (100 µl of a 1 in 10,000 dilution) was added and incubated for a further 1.5 hours at 37°C. After further washes, anti-rabbit IgG peroxidase conjugate (100 µl of a 1 in 4000 dilution) was added and incubated at 37°C for 0.5 hours. After further washing, the substrate solution (100 µl per well of 0.1 mg/ml 3,3', 5,5'-tetramethylbenzidine dihydrochloride in 0.1M phosphate citrate buffer, pH 5.0, to which 2 µl of 30% hydrogen peroxide per 10 ml was added just before use) was added and the colour allowed to develop. The reaction was stopped by the addition of 1M sulphuric acid (25 µl) and the optical density read in a multichannel spectrophotometer at 450 nm. The mean TNF-α concentration was determined by comparison with the standard curve and the mean TNF-α concentration for each group compared with that produced by the control group. Drug treatments which cause a statistically significant reduction in TNF-α concentration of ≥35% at a single dose at 100 mg/kg or less were considered active.

[2] = tested on: Zymosan Stimulated Macrophages; assay: Inhibition of Arachidonic Acid Release from Zymosan Stimulated Macrophages (Test D); type: cell-based, MF1 mice; settings: Mus musculus, Macrophage, tested at 100, 50, 20, 10, 5 and 1 µM
Protocol: Female MF1 mice (weighing 20 to 25 g) were killed using a rising concentration of CO2. The mice were laid on their backs and the abdomens wiped with 70% alcohol. The skin was pulled back, exposing the peritoneal wall. Medium A (5 ml) (see below) was injected into the peritoneal cavity of each mouse followed by approximately 1 ml of air using a 20 ml syringe and a 21G x 40 mm needle in order to form a suspension of macrophage cells. The medium and cells were then removed using a 19G x 40 mm needle. The resulting suspension was returned to a sterile beaker kept on ice. The extracts from all the mice were pooled and this pooled cell suspension was counted using a Coulter counter and adjusted to a final cell count of 1 - 1.3 x 10^6 cells/ml prior to labelling with [^3H]-arachidonic acid. Typically five mice provided sufficient cells for each multiwell plate. Sufficient [^3H]arachidonic acid in ethanol to give a final concentration of 1.6 µCi/ml (equivalent to 40 µCi/plate) was blown to dryness under nitrogen. The arachidonic acid was then resuspended in 1 or 2 ml of the cell suspension which was then mixed with the remainder of the cell suspension in a centrifuge bottle. The labelled cell suspension was then plated out into sterile plastic 96 flat-bottomed well plates (250 µl per well) and incubated overnight at 37°C in a moist atmosphere of 5% CO2, 95% air. The following day, non-adherent cells were removed by washing 3 times with sterile phosphate buffered saline (PBS). The adherent peritoneal macrophages were then cultured for a further 24 hours in the presence or absence of drugs, in medium B (see below) at 37° in a 5% CO2 atmosphere in order to measure the effects of drugs on the spontaneous release of arachidonic acid in the absence of stimulus. After this incubation, supernatants were removed to give media 1 and stored in sealed multi-well plates at 4°C prior to scintillation counting. Drugs which potentiated spontaneous release of arachidonic acid (125% of controls) were deemed to be toxic at the concentration at which this phenomenon occurred. The supernatants were replaced by fresh medium C containing fresh drug and a stimulus. Three drugs were tested at six concentrations (100, 50, 20, 10, 5 and 1 µM) in replicates of four on each plate. The other wells contained controls consisting of a positive control (e.g. dexamethasone), medium (B) only and medium C only. Incubation was then continued for a further 5 hours, whereupon the supernatants were collected to give media 2 and the adherent cells washed with PBS. The cells were then lysed with 100 µl of 0.1% TRITON® X100 in a 0.1% solution of bovine serum albumin in 0.9% saline and mechanically disrupted to give cell lysates. These supernatants (media 2) and cell lysates (Cells) were also stored in sealed multi-well plates at 4°C prior to scintillation counting. 200 µl aliquots of media, or 100 µl aliquots of cells were counted using 2 ml of OPTIPHASE "HIGH SAFE" (Trademark of LKB) as scintillant. […] The value for the arachidonic acid release in the absence of stimulus (spontaneous, cpm of media 2) from cells which had been exposed to neither stimulus nor drug was subtracted from all equivalent values (cpm media 2, stimulated with or without drug) to give the net stimulated release. The percentage inhibition of arachidonic acid release caused by a drug may then be calculated using the following equation. % Inhibition = 100 -(net stimulated release in presence of drug x 100)/(net stimulated release in absence of drug) [formula] […] The zymosan stimulant was prepared as follows:- zymosan (200mg) (supplied by Sigma) was added to PBS (20ml). The mixture was boiled for 30 minutes and the volume restored to 20ml with water. The zymosan was harvested by centrifugation at 500Xg for 5 minutes, washed twice by resuspension in PBS (10ml) and centrifugation. After the final separation, the zymosan was resuspended in 20ml PBS and stored as lml aliquots at -20°C. […]

[3] = tested on: lymphocyte proliferation (BALB/c responder and mitomycin C treated C57BL/6 stimulator spleen cells); assay: Mixed Lymphocyte Reaction (Test A), one-way MLR, tritiated thymidine incorporation; type: cell-based, mice; settings: concentration causing 50% inhibition of lymphocyte proliferation, by linear interpolation, ≤ = active at this concentration but not tested at lower doses
Protocol: A mixed lymphocyte reaction (MLR) occurs when lymphocytes from two genetically dissimilar individuals, or inbred strains of mice are cultured together. An MLR results in the activation and proliferation of lymphocytes, which is measured by the incorporation of radiolabelled thymidine into the cellular DNA synthesised during cell division. A 'one-way' MLR is used to determine the immunosuppressive activity of test compounds in vitro. In this reaction one population of spleen cells serves as the stimulator cells and is treated with mitomycin C to prevent cell division. Spleen cells from a second allogeneic population (responder cells) are untreated and when mixed with the stimulator cells are able to undergo division which is measured. The degree of proliferation is measured in the presence and absence of test compound to assess the immunosuppressive activity of the compound.
The techniques for carrying out lymphocyte proliferation assays including MLRs are well known, eg Bradley, pages 156-166, in Mishell and Shiigi, Eds. Selected Methods in Cellular Immunology (Freeman, San Francisco, 1980); and Battisto et al, methods in Enzymology 1987; 150: 83-91. Various slight modifications of these techniques are in use and that used herein is described in Gibb, Webber and Bowen, J Immunological Methods 1985; 81: 107-113.
Cell suspensions obtained from the spleens of female BALB/c and C57BL/6 strain mice of between 6 and 9 weeks of age were used as sources of responder and stimulator cells respectively. The mice were killed using a rising concentration of CO2 and the spleens removed aseptically and teased using a scalpel and forceps to produce a single cell suspension in Hanks balanced salt solution (HBSS). The suspensions were filtered through cell strainers (Falcon), sedimented by centrifugation and resuspended in Tris-buffered ammonium chloride pH 7.2 (medium D) to lyse the erythrocytes. The cells were sedimented again and washed twice in HBSS before resuspending in complete RPMI 1640 tissue culture medium (medium E). The C57BL/6 cells were resuspended to 9 mls per spleen and a solution of mitomycin C at 400 µg/ml in medium E added to give a final concentration of 40 µg/ml. After incubation of the C57BL/6 cells at 37°C for 30 minutes in an atmosphere of 5% CO2 and 95% air, the cells were sedimented and washed 3 times in medium E. Both cell suspensions were diluted in medium E to 5 x 10^6 cells/ml. 100µl of each of the responder and stimulator cell suspensions were aliquoted into the wells of 96 well flat bottom microtitre plates containing 50 µl of test compound at an appropriate dilution (initially 50 µM diluted in medium E from a stock solution at 100 mM in dimethyl sulphoxide) giving a final test compound concentration of 10 µM (final dilution). Compounds active at this concentration were tested at further final dilution of 1 µM, 0.1 µM and 0.01 µM and 0.001 µM to determine the concentration of test compound which causes 50% inhibition of the immune response (IC50). After four days of culture at 37°C in a humidified atmosphere of 5% CO2 and 95% air, 1 µCi of tritiated thymidine in 20 µl of medium E was added to each well and the plates incubated for a further 24 hours. Cells were then harvested onto Inotech G7 glass fibre filter mats using an Inotech cell harvester. The filters were transferred to vials to which 2 ml of Packard Emulsifier-Safe scintillation fluid was added and the radioactivity from the incorporated thymidine was counted in a Packard liquid scintillation counter. The counts per minute (CPM) reflect the degree of lymphocyte proliferation. The data were analysed to determine the percentage inhibition of lymphocyte proliferation by the test compound. […]

With `c1ccc(CCCN2CCCC(Cn3ccnc3)C2)cc1` (stereo not shown) [Example 101, 3-Imidazol-1-ylmethyl-1-(3-phenylpropyl)piperidine] the minimal effective dose [1] was 100 mg/kg and the IC50 [2] was 18 µM.

For `c1ccc(CCCC2CCN(CCn3ccnc3)CC2)cc1` [Example 96, 1-[2-(imidazol-1-yl)ethyl]-4-(3-phenylpropyl)piperidine, dihydrochloride monohydrate], the IC50 ([3]; Mus musculus) was 0.01 µM and the IC50 [2] was 34 µM.

Work on `CCCc1nccn1CCC1CCN(CCCc2ccccc2)CC1` [Example 110, 1-(3-Phenylpropyl)-4-[2-(2-propylimidazol-1-yl)ethyl]piperidine] yielded an IC50 ([3]; Mus musculus) of 0.2 µM and an IC50 [2] of 20 µM.

`O=C(CCCN1CCC(CCn2ccnc2)CC1)c1ccccc1` [Example 88, 4-[2-(Imidazol-1-yl)ethyl]-1-(4-oxo-4-phenylbutyl)piperidine] was tested, and the minimal effective dose [1] was no more than 30 mg/kg and the IC50 [2] was 52 µM.

In the case of `c1ccc(CCCN2CCCCC2CCn2ccnc2)cc1` (stereo not shown) [Example 100, 2-[2-(Imidazol-1-yl)ethyl]-1-(3-phenylpropyl)piperidine], the minimal effective dose [1] is reported as 100 mg/kg and the IC50 [2] is reported as 27 µM.

Work on `c1ccc(CCCN2CCC(CCn3nccn3)CC2)cc1` [Example 120, 1-(3-Phenylpropyl)-4-[2-(2H-1,2,3-triazol-2-yl)ethyl]piperidine] yielded an IC50 ([3]; Mus musculus) of 4.2 µM and an IC50 [2] of 100 µM.

`CCc1nccn1CCC1CCN(CCCc2ccccc2)CC1` [Example 107, 4-[2-(2-Ethylimidazol-1-yl)ethyl]-1-(3-phenylpropyl)piperidine] was tested, and the IC50 ([3]; Mus musculus) was no more than 0.01 µM and the IC50 [2] was 22 µM.

`CC(C)c1nccn1CCC1CCN(CCCc2ccccc2)CC1` [Example 106, 4-[2-(2-Isopropylimidazol-1-yl)ethyl]-1-(3-phenylpropyl)piperidine] showed an IC50 ([3]; Mus musculus) of 0.5 µM and an IC50 [2] of 22 µM.

For `c1ccc(SCCN2CCC(CCn3ccnc3)CC2)cc1` [Example 86, 4-[2-(imidazol-1-yl)ethyl]-1-(2-phenylthioethyl)piperidine], the IC50 ([3]; Mus musculus) was 2.6 µM and the minimal effective dose [1] was no more than 10 mg/kg.

`c1ccc(CCCN2CCCC(CCn3ccnc3)C2)cc1` (stereo not drawn) [Example 99, 3-[2-(Imidazol-l-yl)ethyl]-1-(3-phenylpropyl)piperidine] showed a minimal effective dose [1] of 100 mg/kg and an IC50 [2] of 58 µM.

In the case of “4-[2-(4-Methylimidazol-1-yl)ethyl]-1-(3-phenylpropyl)piperidine and 4-[2-(5-Methylimidazol-1-yl)ethyl]-1-(3-phenylpropyl)piperidine [Example 118]”, the IC50 [3] is reported as 1.4 µM and the “MTNF:MED” value [1] is reported as no more than 100 mg/kg.
